Assay results from patent US10696677B2 (Research Triangle Institute, priority 2016, dated 2020).
Read-outs that look alike come from different tables or passages of the source.

Legend:
hCB1 [1] = molecular target: T1, hCB1 (Homo sapiens, UniProt P21554); experiment: radioligand displacement binding at CB1 (membranes of CHO-K1 cells over-expressing receptor); details: for CB2 Ki/CB1 Ki selectivity ratio: CB1 versus CB2
Description: (§1) All compounds were characterized by H^1 NMR and evaluated using a calcium mobilization assay. […] Further characterization of select compounds was performed using radioligand displacement of [3H]1 and equilibrium dissociation constant (Ki) values were determined.

MDCK = MDCK BBB Assay; type: in vitro ADME; details: for % Permeable: MDCK BBB assay; for MDCK BBB Assay (Basolateral/Apical Peak Area Ratio) Mean: MDCK cells
hCB2 = hCB2 (Homo sapiens, UniProt P34972); experiment: radioligand displacement binding at CB2 ([3H]CP55940, membranes of CHO-K1 cells over-expressing receptor)
Chain of hCB2 (P34972 whole entry): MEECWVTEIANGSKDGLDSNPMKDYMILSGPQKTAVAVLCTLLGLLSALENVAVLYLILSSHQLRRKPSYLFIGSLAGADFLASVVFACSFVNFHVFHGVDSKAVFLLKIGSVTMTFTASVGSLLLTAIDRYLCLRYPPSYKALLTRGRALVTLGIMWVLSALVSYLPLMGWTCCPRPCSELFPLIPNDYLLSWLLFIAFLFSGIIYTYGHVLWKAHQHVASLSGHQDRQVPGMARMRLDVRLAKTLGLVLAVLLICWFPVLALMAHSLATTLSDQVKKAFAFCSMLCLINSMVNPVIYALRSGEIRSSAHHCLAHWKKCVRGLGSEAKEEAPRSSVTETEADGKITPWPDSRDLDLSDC
Description: as §1

hCB1 [2] = molecular target: T1, hCB1; experiment: functional fluorescent CB1 activated Gαq16-coupled intracellular calcium mobilization assay in CHO-K1 cells; type: cell-based; set-up: expressed in transfected cells; host or cells: CHO-K1 (membranes); details: average of 3-6 measurements, read-out: Apparent antagonist dissociation constant (Ke) at hCB1
[3] = read-out: Binding affinity (Ki) at hCB1, radioligand displacement, CHO-K1 membranes, average of 3-6 measurements
[4] = read-out: Binding affinity (Ki) at hCB2, displacement of [3H]CP55940, CHO-K1 membranes, average of 3-6 measurements

T1 sequence (P21554 whole entry): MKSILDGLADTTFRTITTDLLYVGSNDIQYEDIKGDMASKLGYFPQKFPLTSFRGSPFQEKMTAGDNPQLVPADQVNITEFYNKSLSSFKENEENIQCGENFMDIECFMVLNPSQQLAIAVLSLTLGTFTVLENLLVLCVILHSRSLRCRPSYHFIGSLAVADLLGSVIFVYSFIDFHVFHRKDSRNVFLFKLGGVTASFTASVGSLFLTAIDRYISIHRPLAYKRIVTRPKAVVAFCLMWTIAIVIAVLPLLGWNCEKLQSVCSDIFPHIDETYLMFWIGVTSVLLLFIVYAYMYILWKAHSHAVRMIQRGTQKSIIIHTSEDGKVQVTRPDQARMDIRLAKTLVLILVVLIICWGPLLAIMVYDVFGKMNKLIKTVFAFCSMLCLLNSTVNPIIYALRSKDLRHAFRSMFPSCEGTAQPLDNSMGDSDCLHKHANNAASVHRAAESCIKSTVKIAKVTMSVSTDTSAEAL

## O=C(Nc1ccccn1)N1CCN(c2ncnc3c2nc(-c2ccccc2Cl)n3-c2ccc(Cl)cc2)CC1 [Compound 122, 4-[8-(2-Chlorophenyl)-9-(4-chlorophenyl)-9H-purin-6-yl]-N-(pyridin-2-yl)piperazine-1-carboxamide]
other
  melting point: 120 to 122 °C
hCB1 [1]; [3]
  Ki: 0.006 µM
MDCK
  % Permeable: 1%
hCB2; [4]
  Ki: 7.1 µM

## Clc1ccc(-n2c(-c3ccccc3Cl)nc3c(N4CCC(NCc5ccncc5)CC4)ncnc32)cc1 [Compound 38, 1-[8-(2-chlorophenyl)-9-(4-chlorophenyl)-9H-purin-6-yl]-N-(pyridin-4-ylmethyl)piperidin-4-amine]
hCB1 [2]
  Kb: 0.36 µM

## Clc1ccc(-n2c(-c3ccccc3Cl)nc3c(N4CCC(Nc5ccccn5)CC4)ncnc32)cc1 [Compound 32, N-{1-[8-(2-chlorophenyl)-9-(4-chlorophenyl)-9H-purin-6-yl]piperidin-4-yl}pyridin-2-amine]
hCB1 [2]
  Kb: 0.054 µM
hCB1 [1]
  Ki: 0.002 µM
  CB2 Ki/CB1 Ki selectivity ratio: 2300
MDCK
  % Permeable: 0%
  MDCK BBB Assay (Basolateral/Apical Peak Area Ratio) Mean: 0.001
hCB2
  Ki: 4.6 µM

## Clc1ccc(-n2c(-c3sccc3Cl)nc3c(N4CCN(Cc5ccccc5Cl)CC4)ncnc32)cc1 [Compound 52, 6-[4-(2-chlorobenzyl)piperazin-1-yl]-9-(4-chlorophenyl)-8-(3-chlorothiophen-2-yl)-9H-purine]
hCB1 [2]
  Kb: 0.22 µM

## CN(Cc1ccc(F)cc1)C1CCN(c2ncnc3c2nc(-c2ccccc2Cl)n3-c2ccc(Cl)cc2)CC1 [Compound 41, 1-[8-(2-chlorophenyl)-9-(4-chlorophenyl)-9H-purin-6-yl]-N-(4-fluorobenzyl)-N-methylpiperidin-4-amine]
hCB1 [2]
  Kb: 0.185 µM

## Cc1cc(-n2c(-c3ccccc3Cl)nc3c(N4CCN(Cc5ccccc5Cl)CC4)ncnc32)no1 [Compound 49, 8-(2-chlorophenyl)-6-{4-[(2-chlorophenyl)methyl]piperazin-1-yl}-9-(5-methyl-1,2-oxazol-3-yl)-9H-purine]
hCB1 [2]
  Kb: 0.32 µM
other
  melting point: 79 to 81 °C

## NC(=O)c1ccc(-n2c(-c3ccccc3Cl)nc3c(N4CCN(Cc5ccccc5Cl)CC4)ncnc32)cc1 [Compound 48, 4-[8-(2-chlorophenyl)-6-{4-[(2-chlorophenyl)methyl]piperazin-1-yl}-9H-purin-9-yl]benzamide]
hCB1 [2]
  Kb: 0.44 µM
other
  melting point: 120 to 122 °C

## Cc1noc(C)c1-c1nc2c(N3CCN(Cc4ccccc4Cl)CC3)ncnc2n1-c1ccc(Cl)cc1 [Compound 53, 6-[4-(2-chlorobenzyl)piperazin-1-yl]-9-(4-chlorophenyl)-8-(3,5-dimethylisoxazol-4-yl)-9H-purine]
hCB1 [2]
  Kb: 0.11 µM

## CN(Cc1ccccc1)C1CCN(c2ncnc3c2nc(-c2ccccc2Cl)n3-c2ccc(Cl)cc2)CC1 [Compound 39, N-benzyl-1-[8-(2-chlorophenyl)-9-(4-chlorophenyl)-9H-purin-6-yl]-N-methylpiperidin-4-amine]
hCB1 [2]
  Kb: 0.106 µM
hCB1 [1]
  CB2 Ki/CB1 Ki selectivity ratio: 98
hCB1 [1]; [3]
  Ki: 0.042 µM
hCB2
  Ki: 4.1 µM

## O=C(NC1CCCC1)N1CCN(c2ncnc3c2nc(-c2ccccc2Cl)n3-c2ccc(Cl)cc2)CC1 [Compound 117, 4-[8-(2-Chlorophenyl)-9-(4-chlorophenyl)-9H-purin-6-yl]-N-cyclopentylpiperazine-1-carboxamide]
other
  melting point: 248 to 250 °C
hCB1 [1]; [3]
  Ki: 0.005 µM
MDCK
  % Permeable: 3%
hCB2; [4]
  Ki: 0.74 µM

## O=C(Nc1ccc(F)c(F)c1)N1CCN(c2ncnc3c2nc(-c2ccccc2Cl)n3-c2ccc(Cl)cc2)CC1 [Compound 42, 4-[8-(2-Chlorophenyl)-9-(4-chlorophenyl)-9H-purin-6-yl]-N-(3,4-difluorophenyl)piperazine-1-carboxamide]
other
  melting point: 205 to 207 °C
MDCK
  % Permeable: 0%
hCB2; [4]
  Ki: 4.2 µM

## CCCCC(=O)NC1(c2ccccc2)CCN(c2ncnc3c2nc(-c2ccncc2)n3-c2ccc(Cl)cc2)CC1 [Compound 55, N-{1-[9-(4-chlorophenyl)-8-pyridin-4-yl-9H-purin-6-yl]-4-phenylpiperidin-4-yl}pentanamide]
hCB1 [2]
  Kb: 0.869 µM
hCB1 [1]
  Ki: 0.272 µM
  CB2 Ki/CB1 Ki selectivity ratio: 5.8
hCB2
  Ki: 1.57 µM

## Fc1ccc(CNC2CCN(c3ncnc4c3nc(-c3ccccc3Cl)n4-c3ccc(Cl)cc3)CC2)cc1 [Compound 40, 1-[8-(2-chlorophenyl)-9-(4-chlorophenyl)-9H-purin-6-yl]-N-(4-fluorobenzyl)piperidin-4-amine]
hCB1 [2]
  Kb: 0.082 µM

## Clc1ccc(-n2c(-c3ccccc3Cl)nc3c(N4CCC(NCc5ccccc5)CC4)ncnc32)cc1 [Compound 37, N-benzyl-1-[8-(2-chlorophenyl)-9-(4-chlorophenyl)-9H-purin-6-yl]piperidin-4-amine]
hCB1 [2]
  Kb: 0.059 µM

## FC(F)(F)c1ccc(-n2c(-c3ccccc3Cl)nc3c(N4CCN(Cc5ccccc5Cl)CC4)ncnc32)cn1 [Compound 47, 8-(2-Chlorophenyl)-6-{4-[(2-chlorophenyl)methyl]piperazin-1-yl}-9-[6-(trifluoromethyl)pyridin-3-yl]-9H-purine]
hCB1 [2]
  Kb: 0.14 µM
other
  melting point: 189 to 190 °C

## N=C(Nc1ccc(F)cc1)NC1CCN(c2ncnc3c2nc(-c2ccccc2Cl)n3-c2ccc(Cl)cc2)CC1 [Compound 27, 1-{1-[8-(2-chlorophenyl)-9-(4-chlorophenyl)-9H-purin-6-yl]piperidin-4-yl}-3-(4-fluorophenyl)guanidine]
hCB1 [2]
  Kb: 0.6 µM

## O=C(Nc1ccccc1)N1CCN(c2ncnc3c2nc(-c2ccccc2Cl)n3-c2ccc(C(F)(F)F)nc2)CC1 [Compound 45]
hCB1 [2]
  Kb: 0.008 µM
hCB1 [1]
  Ki: 0.039 µM
  CB2 Ki/CB1 Ki selectivity ratio: 30
hCB2
  Ki: 0.79 µM

## O/N=C(/c1ccc(F)cc1)C1CCN(c2ncnc3c2nc(-c2ccccc2Cl)n3-c2ccc(Cl)cc2)CC1 [Compound 29, (E)-{1-[8-(2-chlorophenyl)-9-(4-chlorophenyl)-9H-purin-6-yl]piperidin-4-yl}(4-fluorophenyl)methanone oxime]
hCB1 [2]
  Kb: 0.021 µM
hCB1 [1]
  Ki: 0.004 µM

## Clc1ccc(-n2c(-c3ccccc3Cl)nc3c(N4CCC(Nc5ccncc5)CC4)ncnc32)cc1 [Compound 36, N-{1-[8-(2-chlorophenyl)-9-(4-chlorophenyl)-9H-purin-6-yl]piperidin-4-yl}pyridin-4-amine]
hCB1 [2]
  Kb: 0.1 µM

## Clc1ccc(-n2c(-c3ccccc3Cl)nc3c(N4CCN(c5nc6ccccc6[nH]5)CC4)ncnc32)cc1 [Compound 123, 6-[4-(1H-benzimidazol-2-yl)piperazin-1-yl]-8-(2-chlorophenyl)-9-(4-chlorophenyl)-9H-purine]
hCB1 [2]
  Kb: 0.053 µM

## Clc1ccc(-n2c(-c3ccccc3Cl)nc3c(N4CCC(Nc5ccccc5)CC4)ncnc32)cc1 [Compound 31, 1-[8-(2-chlorophenyl)-9-(4-chlorophenyl)-9H-purin-6-yl]-N-phenylpiperidin-4-amine]
hCB1 [2]
  Kb: 0.0014 µM
MDCK
  % Permeable: 0%
  MDCK BBB Assay (Basolateral/Apical Peak Area Ratio) Mean: 0

## O=S(=O)(NC1CCN(c2ncnc3c2nc(-c2ccccc2Cl)n3-c2ccc(Cl)cc2)CC1)c1ccc(F)cc1 [Compound 4, N-{1-[8-(2-Chlorophenyl)-9-(4-chlorophenyl)-9H-purin-6-yl]piperidin-4-yl}-4-fluorobenzene-1-sulfonamide]
hCB1 [2]
  Kb: 0.0011 µM
other
  melting point: 196 to 197 °C
MDCK
  % Permeable: 0%
  MDCK BBB Assay (Basolateral/Apical Peak Area Ratio) Mean: 0.0006

## Cn1cc(-n2c(-c3ccccc3Cl)nc3c(N4CCC(NS(=O)(=O)c5ccc(F)c(F)c5)CC4)ncnc32)cn1 [Compound 12, N-{1-[8-(2-Chlorophenyl)-9-(1-methyl-1H-pyrazol-4-yl)-9H-purin-6-yl]piperidin-4-yl}-3,4-difluorobenzene-1-sulfonamide]
hCB1 [2]
  Kb: 0.14 µM
other
  melting point: 162 to 164 °C

## O=S(=O)(NC1CCN(c2ncnc3c2nc(-c2ccccc2Cl)n3-c2ccc(Cl)cc2)CC1)c1ccccc1F [Compound 1, N-{1-[8-(2-Chlorophenyl)-9-(4-chlorophenyl)-9H-purin-6-yl]piperidin-4-yl}-2-fluorobenzene-1-sulfonamide]
hCB1 [2]
  Kb: 0.0001 µM
other
  melting point: 185 to 187 °C

## O=C(Nc1ccc(F)cc1)N1CCN(c2ncnc3c2nc(-c2ccccc2Cl)n3-c2ccc(Cl)cc2)CC1 [Compound 43, 4-[8-(2-Chlorophenyl)-9-(4-chlorophenyl)-9H-purin-6-yl]-N-(4-fluorophenyl)piperazine-1-carboxamide]
other
  melting point: 234 to 235 °C
hCB1 [1]; [3]
  Ki: 0.019 µM
hCB2; [4]
  Ki: 2 µM

## Cn1ccc(-n2c(-c3ccccc3Cl)nc3c(N4CCN(Cc5ccccc5Cl)CC4)ncnc32)n1 [Compound 51, 8-(2-Chlorophenyl)-6-{4-[(2-chlorophenyl)methyl]piperazin-1-yl}-9-(1-methyl-1H-pyrazol-3-yl)-9H-purine]
hCB1 [2]
  Kb: 0.38 µM
other
  melting point: 150 to 152 °C

## Clc1ccc(-n2c(-c3ccccc3Cl)nc3c(N4CCC(c5nc6ccccc6[nH]5)CC4)ncnc32)cc1 [Compound 30, 6-[4-(1H-benzimidazol-2-yl)piperidin-1-yl]-8-(2-chlorophenyl)-9-(4-chlorophenyl)-9H-purine]
hCB1 [2]
  Kb: 0.012 µM
hCB1 [1]; [3]
  Ki: 0.047 µM

## O=C(Nc1ccc(F)cc1F)N1CCN(c2ncnc3c2nc(-c2ccccc2Cl)n3-c2ccc(Cl)cc2)CC1 [Compound 57, 4-[8-(2-Chlorophenyl)-9-(4-chlorophenyl)-9H-purin-6-yl]-N-(2,4-difluorophenyl)piperazine-1-carboxamide]
other
  melting point: 220 to 221 °C
hCB1 [1]
  Ki: 0.009 µM
hCB2; [4]
  Ki: 3.2 µM
